We go through nine molecules from patent publication US20060160851A1, “Substituted piperidine carbamates” (Novo Nordisk A/S, priority 2003, published 2006).

Each structure is given as a SMILES string.

The target of this assay is T1, hormone sensitive lipase (Homo sapiens, UniProt Q05469).
T1 construct: made in house
T1 sequence (Q05469 1-1076): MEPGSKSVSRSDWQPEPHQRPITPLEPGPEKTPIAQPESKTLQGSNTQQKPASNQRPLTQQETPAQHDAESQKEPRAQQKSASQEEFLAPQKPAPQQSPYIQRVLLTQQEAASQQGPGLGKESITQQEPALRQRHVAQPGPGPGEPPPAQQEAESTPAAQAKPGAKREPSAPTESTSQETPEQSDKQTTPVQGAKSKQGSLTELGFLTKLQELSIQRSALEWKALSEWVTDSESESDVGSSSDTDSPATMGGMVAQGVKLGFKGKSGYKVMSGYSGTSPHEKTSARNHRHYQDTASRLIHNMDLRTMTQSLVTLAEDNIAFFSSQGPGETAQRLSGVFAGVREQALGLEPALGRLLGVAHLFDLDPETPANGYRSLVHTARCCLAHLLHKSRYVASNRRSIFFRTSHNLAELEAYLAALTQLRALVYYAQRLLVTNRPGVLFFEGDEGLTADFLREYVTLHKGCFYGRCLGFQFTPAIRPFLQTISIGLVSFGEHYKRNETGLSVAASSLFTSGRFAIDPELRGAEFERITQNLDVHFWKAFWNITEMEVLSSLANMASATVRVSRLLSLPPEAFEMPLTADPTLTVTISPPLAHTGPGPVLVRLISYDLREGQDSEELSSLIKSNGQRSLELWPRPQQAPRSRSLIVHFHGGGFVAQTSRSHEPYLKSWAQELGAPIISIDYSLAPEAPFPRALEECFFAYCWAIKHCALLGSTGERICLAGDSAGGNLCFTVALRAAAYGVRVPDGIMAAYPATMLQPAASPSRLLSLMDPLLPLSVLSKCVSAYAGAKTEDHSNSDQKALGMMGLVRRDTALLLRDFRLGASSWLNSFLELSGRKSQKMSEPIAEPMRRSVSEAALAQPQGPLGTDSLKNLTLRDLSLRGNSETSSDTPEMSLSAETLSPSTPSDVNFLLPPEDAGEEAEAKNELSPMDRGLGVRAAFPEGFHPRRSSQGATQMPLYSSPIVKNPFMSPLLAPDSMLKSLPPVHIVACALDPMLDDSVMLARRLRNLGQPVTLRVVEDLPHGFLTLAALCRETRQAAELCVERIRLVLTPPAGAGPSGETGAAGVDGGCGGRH
As to the kind of experiment: Assay 3190.1: percent inhibition of hormone sensitive lipase by compound at 10 μM (fluorochrome-labeled triacylglyceride emulsion, HSL_FL). The assay is classed as biochemical. As to conditions: 10 μM sample concentration; % activity relative to non-inhibited sample (no compound); 30 min preincubation at 25° C., 120 min incubation at 37° C.; read-out: Test 3190.1 HSL_FL % ACTIVITY
The source says:
The Hormone-sensitive lipase was provided by Dr. Cecilia Holm, from Lund University Sweden or produced and purified by Novo Nordisk (NN) using the reagents and protocols used by Dr. Holm. The substrates used are: ^3H-labeled triolein (TO) from Amersham, Buckinghamshire, U.K. cat No. TRA191; 5-20 Ci/mmol dissolved in toluene, triolein (Sigma, Cat. No. T-1740), fluorochrome-labeled triacylglyceride (cis-octadec-9-enoic acid 2-[12-(7-nitrobenzo[1,2,5]oxadiazol-4-ylamino)dodecanoyloxy]-1-cis-octadec-9-enoyloxymethyl-ethyl ester) prepared by Novo Nordisk (NN) by conventional methods, and 1,3-(di[^3H]-stearin), 2-(PEG-Biotin)glycerol prepared in collaboration with Amersham Pharmacia Biotech, UK and described in WO 01/073442. Phosphatidyl choline (PC) and phosphatidyl inositol (PI) are from Sigma (St Luis Mo. cat. Nos. P-3556 and P-5954 respectively). All other reagents are of commercial grade and obtained from various commercial sources.
3190.1: Assay for determination of percent inhibition of hormone sensitive lipase by compound at 10 μM sample concentration.
A lipid emulsion with fluorochrome-labeled triacylglyceride and phospholipid is used as substrate with a standard concentration of highly purified HSL (12 μg/mL initial concentration corresponding to 600 ng/mL final concentration). BSA is added as product acceptor receptor. The transfer of the fluorochrome from the lipid phase to the water (BSA) phase changes the fluorescent properties of the fluorochrome. The changes can be monitored on a fluorimeter with an excitation wavelength of 450 nm and an emission wavelength of 545 nm.
Compound and HSL (20 μL compound, 10 μL enzyme and 70 μL PED-BSA buffer) is pre-incubated for 30 min at 25° C. before addition of substrate (100 μL). Amount of formed product is measured after 120 min incubation at 37° C.
Results are given as percent activity relative to a non-inhibited sample (no compound).
For `O=C(O)Cc1ccc(OC2CCN(C(=O)Oc3ccc(C(=O)NCC4CCCCC4)cc3)CC2)cc1` [Example 88, 4-(4-Carboxymethyl-phenoxy)-piperidine-1-carboxylic acid 4-(cyclohexylmethyl-carbamoyl)-phenyl ester], the activity at 10 µM was found to be 3%. Then `O=C(O)Cc1ccc(OC2CCN(C(=O)Oc3ccc(C(=O)NCCc4cccs4)cc3)CC2)cc1` [Example 91, 4-(4-Carboxymethyl-phenoxy)-piperidine-1-carboxylic acid 4-(2-thiophen-2-yl-ethylcarbamoyl)-phenyl ester], with 10%; and `O=C(O)Cc1ccc(OC2CCN(C(=O)Oc3ccc(CCOc4ccc(-n5cnnc5)cc4)cc3)CC2)cc1` [Example 97, 4-(4-Carboxymethyl-phenoxy)-piperidine-1-carboxylic acid 4-[2-(4-[1,2,4]triazol-4-yl-phenoxy)-ethyl]-phenyl ester], with 15%. The same measure for `O=C(O)Cc1ccc(OC2CCN(C(=O)Oc3ccc(Cc4ncc(C(F)(F)F)cc4Cl)cc3)CC2)cc1` [Example 102, 4-(4-Carboxymethyl-phenoxy)-piperidine-1-carboxylic acid 4-(3-chloro-5-trifluoromethyl-pyridin-2-ylmethyl)-phenyl ester]: 11%. Turning to `O=C(O)Cc1ccc(OC2CCN(C(=O)Oc3ccc(Oc4ccc(C(F)(F)F)cc4)cc3)CC2)cc1` [Example 103, 4-(4-Carboxymethyl-phenoxy)-piperidine-1-carboxylic acid 4-(4-trifluoromethyl-phenoxy)-phenyl ester], the activity at 10 µM was found to be 6%. Then `CC(C)(C)CCNC(=O)c1ccc(OC(=O)N2CCC(Oc3ccc(C(=O)O)cc3)CC2)cc1` [Example 105, 4-(4-Carboxy-phenoxy)-piperidine-1-carboxylic acid 4-(3,3-dimethyl-butylcarbamoyl)-phenyl ester], with 11%. Then `O=C(O)Cc1cccc(OC2CCN(C(=O)Oc3ccc(Oc4ccc(C(F)(F)F)cn4)cc3)CC2)c1` [Example 110, 4-(3-Carboxymethyl-phenoxy)-piperidine-1-carboxylic acid 4-(5-trifluoromethyl-pyridin-2-yloxy)-phenyl ester], with 20%; and `O=C(O)CCc1cccc(OC2CCN(C(=O)Oc3ccc(Oc4ccc(C(F)(F)F)cn4)cc3)CC2)c1` [Example 112, 4-[3-(2-Carboxy-ethyl)-phenoxy]-piperidine-1-carboxylic acid 4-(5-trifluoromethyl-pyridin-2-yloxy)-phenyl ester], with 14%; and `O=C(O)Cc1ccc(OC2CCN(C(=O)Oc3ccc(Oc4ccc(Cl)cn4)cc3)CC2)cc1` [Example 117, 4-(4-Carboxymethyl-phenoxy)-piperidine-1-carboxylic acid 4-(5-chloro-pyridin-2-yloxy)-phenyl ester], with 8%.
